Measured values published in patent publication US20220105150A1, “AMPHIPATHIC ALPHA-HELICAL ANTIMICROBIAL PEPTIDES TREAT INFECTIONS BY GRAM-NEGATIVE PATHOGENS” (priority 2019, published 2022).
Square brackets hold non-standard residues; d marks the D form. dOrn = NCCC[C@@H](N)C(=O)O; Dab = NCC[C@H](N)C(=O)O; Dap = NC[C@H](N)C(=O)O

How the values were obtained:
[1] = tested on: A. baumannii strains from JMI Laboratories; details: 20 A. baumannii isolates from JMI Laboratories; cited from earlier work
[2] = tested on: Acinetobacter baumannii strains resistant to Polymyxin B and Colistin; details: results provided by MERCK, cited from earlier work; for MICGM: geometric mean over seven strains; for MIC MB9941: strain MB9941; for MIC MB9949: strain MB9949; for MIC MB9951: strain MB9951; for MIC MB9952: strain MB9952; for MIC MB9953: strain MB9953; for MIC MB9955: strain MB9955; for MIC MB9963: strain MB9963
serum proteins = assay: cell-based or functional assay
[3] = target: the molecule itself; assay: RP-HPLC temperature profiling, self-association (dimerization/oligomerization) against random coil control RC

Ampicillin-sulbactam
number of resistant isolates out of the number of isolates screened [1]: 17/20

Piperacillin-tazobactam
number of resistant isolates out of the number of isolates screened [1]: 19/20

CC(C)(O/N=C(\C(=O)N[C@@H]1C(=O)N2C(C(=O)[O-])=C(C[n+]3ccccc3)CS[C@H]12)c1csc(N)n1)C(=O)O [Ceftazidime]
number of resistant isolates out of the number of isolates screened [1]: 17/20

NC[C@H]1O[C@H](O[C@H]2[C@H](O)[C@@H](O[C@H]3O[C@H](CO)[C@@H](O)[C@H](N)[C@H]3O)[C@H](N)C[C@@H]2N)[C@H](N)C[C@@H]1O [Tobramycin]
number of resistant isolates out of the number of isolates screened [1]: 18/20

C[C@@H](O)[C@H]1C(=O)N2C(C(=O)O)=C(S[C@@H]3CN[C@H](C(=O)N(C)C)C3)[C@H](C)[C@H]12 [Meropenem]
number of resistant isolates out of the number of isolates screened [1]: 17/20

CO/N=C(\C(=O)N[C@@H]1C(=O)N2C(C(=O)[O-])=C(C[N+]3(C)CCCC3)CS[C@H]12)c1csc(N)n1 [Cefepime]
number of resistant isolates out of the number of isolates screened [1]: 18/20

Colistin
MICGM [2]: >28 µM
MIC MB9941 [2]: >28 µM
MIC MB9949 [2]: >28 µM
MIC MB9951 [2]: >28 µM
MIC MB9952 [2]: >28 µM
MIC MB9953 [2]: >28 µM
MIC MB9955 [2]: >28 µM
MIC MB9963 [2]: >28 µM
number of resistant isolates out of the number of isolates screened [1]: 10/20

Polymyxin B
MICGM [2]: >25 µM
MIC MB9941 [2]: >25 µM
MIC MB9949 [2]: >25 µM
MIC MB9951 [2]: >25 µM
MIC MB9952 [2]: >25 µM
MIC MB9953 [2]: >25 µM
MIC MB9955 [2]: >25 µM
MIC MB9963 [2]: >25 µM

Gentamicin
number of resistant isolates out of the number of isolates screened [1]: 18/20

NCC[C@H](O)C(=O)N[C@@H]1C[C@H](N)[C@@H](O[C@H]2O[C@H](CN)[C@@H](O)[C@H](O)[C@H]2O)[C@H](O)[C@H]1O[C@H]1O[C@H](CO)[C@@H](O)[C@H](N)[C@H]1O [Amikacin]
number of resistant isolates out of the number of isolates screened [1]: 17/20

C[C@@H](O)[C@H]1C(=O)N2C(C(=O)O)=C(S[C@@H]3CN[C@H](CNS(N)(=O)=O)C3)[C@H](C)[C@H]12 [Doripenem]
number of resistant isolates out of the number of isolates screened [1]: 17/20

C[C@H]1[C@H](NC(=O)/C(=N\OC(C)(C)C(=O)O)c2csc(N)n2)C(=O)N1S(=O)(=O)O [Aztreonam]
number of resistant isolates out of the number of isolates screened [1]: 20/20

Ceftazidime-avibactam
number of resistant isolates out of the number of isolates screened [1]: 17/20

O=C(O)c1cn(C2CC2)c2cc(N3CCNCC3)c(F)cc2c1=O [Ciprofloxacin]
number of resistant isolates out of the number of isolates screened [1]: 15/20

B1: D105(K13A/K16A)-(Lys1-6Dap-1) (peptide)
peptide: Ac-[dK][dL][Dap][dS][dL][dL][Dap][dT][dL][dS][Dap][dA][dA][dA][dA][dA][dL][Dap][dT][dL][dL][Dap][dA][dL][dS][Dap]-NH2
SMILES: CC(=O)N[C@H](CCCCN)C(=O)N[C@H](CC(C)C)C(=O)N[C@@H](CN)C(=O)N[C@H](CO)C(=O)N[C@H](CC(C)C)C(=O)N[C@H](CC(C)C)C(=O)N[C@@H](CN)C(=O)N[C@@H](C(=O)N[C@H](CC(C)C)C(=O)N[C@H](CO)C(=O)N[C@@H](CN)C(=O)N[C@H](C)C(=O)N[C@H](C)C(=O)N[C@H](C)C(=O)N[C@H](C)C(=O)N[C@H](C)C(=O)N[C@H](CC(C)C)C(=O)N[C@@H](CN)C(=O)N[C@@H](C(=O)N[C@H](CC(C)C)C(=O)N[C@H](CC(C)C)C(=O)N[C@@H](CN)C(=O)N[C@H](C)C(=O)N[C@H](CC(C)C)C(=O)N[C@H](CO)C(=O)N[C@@H](CN)C(N)=O)[C@H](C)O)[C@H](C)O
notes: Control AMP without specificity determinants (Ala13/Ala16); also called D105(A13/A16-6Dap-1); D105(K13A/K16A-6 Dap-1)
MIC (µM) against A. baumannii strain 649 in 25% human serum (no serum: 0.8) (serum proteins): 12.5 µM
fold loss of antimicrobial activity in 25% human sera (serum proteins): 15 fold
PA (self-association parameter) [3]: 18 min

B2: D86(K13A/K16A)-(Lys1-6Dab-1) (peptide)
peptide: Ac-[dK][dL][Dab][dS][dL][dL][Dab][dT][dL][dS][Dab][dA][dA][dA][dA][dA][dL][Dab][dT][dL][dL][Dab][dA][dL][dS][Dab]-NH2
SMILES: CC(=O)N[C@H](CCCCN)C(=O)N[C@H](CC(C)C)C(=O)N[C@@H](CCN)C(=O)N[C@H](CO)C(=O)N[C@H](CC(C)C)C(=O)N[C@H](CC(C)C)C(=O)N[C@@H](CCN)C(=O)N[C@@H](C(=O)N[C@H](CC(C)C)C(=O)N[C@H](CO)C(=O)N[C@@H](CCN)C(=O)N[C@H](C)C(=O)N[C@H](C)C(=O)N[C@H](C)C(=O)N[C@H](C)C(=O)N[C@H](C)C(=O)N[C@H](CC(C)C)C(=O)N[C@@H](CCN)C(=O)N[C@@H](C(=O)N[C@H](CC(C)C)C(=O)N[C@H](CC(C)C)C(=O)N[C@@H](CCN)C(=O)N[C@H](C)C(=O)N[C@H](CC(C)C)C(=O)N[C@H](CO)C(=O)N[C@@H](CCN)C(N)=O)[C@H](C)O)[C@H](C)O
notes: Control AMP without specificity determinants (Ala13/Ala16); also called D86(A13/A16-6Dab-1); D86(K13A/K16A-6 Dab-1)
MIC (µM) against A. baumannii strain 649 in 25% human serum (no serum: 0.8) (serum proteins): 3 µM
fold loss of antimicrobial activity in 25% human sera (serum proteins): 4 fold
PA (self-association parameter) [3]: 12.5 min

B3: D105(Lys1-6Dap-1) (peptide)
peptide: Ac-[dK][dL][Dap][dS][dL][dL][Dap][dT][dL][dS][Dap][dA][dK][dA][dA][dK][dL][Dap][dT][dL][dL][Dap][dA][dL][dS][Dap]-NH2
SMILES: CC(=O)N[C@H](CCCCN)C(=O)N[C@H](CC(C)C)C(=O)N[C@@H](CN)C(=O)N[C@H](CO)C(=O)N[C@H](CC(C)C)C(=O)N[C@H](CC(C)C)C(=O)N[C@@H](CN)C(=O)N[C@@H](C(=O)N[C@H](CC(C)C)C(=O)N[C@H](CO)C(=O)N[C@@H](CN)C(=O)N[C@H](C)C(=O)N[C@H](CCCCN)C(=O)N[C@H](C)C(=O)N[C@H](C)C(=O)N[C@H](CCCCN)C(=O)N[C@H](CC(C)C)C(=O)N[C@@H](CN)C(=O)N[C@@H](C(=O)N[C@H](CC(C)C)C(=O)N[C@H](CC(C)C)C(=O)N[C@@H](CN)C(=O)N[C@H](C)C(=O)N[C@H](CC(C)C)C(=O)N[C@H](CO)C(=O)N[C@@H](CN)C(N)=O)[C@H](C)O)[C@H](C)O
notes: Designed 26-residue AMP; Lys13/Lys16 specificity determinants; also called D105(6Dap-1); D105-6 Dap-1
MIC (µM) against A. baumannii strain 649 in 25% human serum (no serum: 0.8) (serum proteins): 3 µM
fold change of MIC in 25% human sera against no serum (serum proteins): 4 fold
PA (self-association parameter) [3]: 3.7 min

B4: D84(Lys1-6Lys-1) (peptide)
peptide: Ac-[dK][dL][dK][dS][dL][dL][dK][dT][dL][dS][dK][dA][dK][dA][dA][dK][dL][dK][dT][dL][dL][dK][dA][dL][dS][dK]-NH2
SMILES: CC(=O)N[C@H](CCCCN)C(=O)N[C@H](CC(C)C)C(=O)N[C@H](CCCCN)C(=O)N[C@H](CO)C(=O)N[C@H](CC(C)C)C(=O)N[C@H](CC(C)C)C(=O)N[C@H](CCCCN)C(=O)N[C@@H](C(=O)N[C@H](CC(C)C)C(=O)N[C@H](CO)C(=O)N[C@H](CCCCN)C(=O)N[C@H](C)C(=O)N[C@H](CCCCN)C(=O)N[C@H](C)C(=O)N[C@H](C)C(=O)N[C@H](CCCCN)C(=O)N[C@H](CC(C)C)C(=O)N[C@H](CCCCN)C(=O)N[C@@H](C(=O)N[C@H](CC(C)C)C(=O)N[C@H](CC(C)C)C(=O)N[C@H](CCCCN)C(=O)N[C@H](C)C(=O)N[C@H](CC(C)C)C(=O)N[C@H](CO)C(=O)N[C@H](CCCCN)C(N)=O)[C@H](C)O)[C@H](C)O
notes: Designed 26-residue AMP; Lys at 3, 7, 11, 18, 22, 26; Lys13/Lys16 specificity determinants; also called D84(6 Lys-1); D84-6 Lys-1
MIC (µM) against A. baumannii strain 649 in 25% human serum (no serum: 0.3) (serum proteins): 0.3 µM
PA (self-association parameter) [3]: 5.9 min

B5: D85(K13A/K16A)-(Lys1-6Orn-1) (peptide)
peptide: Ac-[dK][dL][dOrn][dS][dL][dL][dOrn][dT][dL][dS][dOrn][dA][dA][dA][dA][dA][dL][dOrn][dT][dL][dL][dOrn][dA][dL][dS][dOrn]-NH2
SMILES: CC(=O)N[C@H](CCCCN)C(=O)N[C@H](CC(C)C)C(=O)N[C@H](CCCN)C(=O)N[C@H](CO)C(=O)N[C@H](CC(C)C)C(=O)N[C@H](CC(C)C)C(=O)N[C@H](CCCN)C(=O)N[C@@H](C(=O)N[C@H](CC(C)C)C(=O)N[C@H](CO)C(=O)N[C@H](CCCN)C(=O)N[C@H](C)C(=O)N[C@H](C)C(=O)N[C@H](C)C(=O)N[C@H](C)C(=O)N[C@H](C)C(=O)N[C@H](CC(C)C)C(=O)N[C@H](CCCN)C(=O)N[C@@H](C(=O)N[C@H](CC(C)C)C(=O)N[C@H](CC(C)C)C(=O)N[C@H](CCCN)C(=O)N[C@H](C)C(=O)N[C@H](CC(C)C)C(=O)N[C@H](CO)C(=O)N[C@H](CCCN)C(N)=O)[C@H](C)O)[C@H](C)O
notes: Control AMP without specificity determinants (Ala13/Ala16); also called D85(A13/A16-6Orn-1); D85(K13A/K16A-6 Orn-1)
PA (self-association parameter) [3]: 28 min

B6: D87(Lys1-6Arg-1) (peptide)
peptide: Ac-[dK][dL][dR][dS][dL][dL][dR][dT][dL][dS][dR][dA][dK][dA][dA][dK][dL][dR][dT][dL][dL][dR][dA][dL][dS][dR]-NH2
SMILES: CC(=O)N[C@H](CCCCN)C(=O)N[C@H](CC(C)C)C(=O)N[C@H](CCCNC(=N)N)C(=O)N[C@H](CO)C(=O)N[C@H](CC(C)C)C(=O)N[C@H](CC(C)C)C(=O)N[C@H](CCCNC(=N)N)C(=O)N[C@@H](C(=O)N[C@H](CC(C)C)C(=O)N[C@H](CO)C(=O)N[C@H](CCCNC(=N)N)C(=O)N[C@H](C)C(=O)N[C@H](CCCCN)C(=O)N[C@H](C)C(=O)N[C@H](C)C(=O)N[C@H](CCCCN)C(=O)N[C@H](CC(C)C)C(=O)N[C@H](CCCNC(=N)N)C(=O)N[C@@H](C(=O)N[C@H](CC(C)C)C(=O)N[C@H](CC(C)C)C(=O)N[C@H](CCCNC(=N)N)C(=O)N[C@H](C)C(=O)N[C@H](CC(C)C)C(=O)N[C@H](CO)C(=O)N[C@H](CCCNC(=N)N)C(N)=O)[C@H](C)O)[C@H](C)O
notes: De novo designed 26-residue amphipathic alpha-helical antimicrobial peptide; Arg at 3, 7, 11, 18, 22, 26; Lys13/Lys16 specificity determinants; also called D87(6Arg-1); D87-6 Arg-1
MIC (µM) against A. baumannii strain 649 in 25% human serum (no serum: 0.7) (serum proteins): 1.3 µM
PA (self-association parameter) [3]: 5.9 min
